Reference: publication PMC3448645, “Functional Studies of ssDNA Binding Ability of MarR Family Protein TcaR from Staphylococcus epidermidis” (PLoS ONE, 2012)

What was measured:
TcaR [1] = molecular target: T1, TcaR (Staphylococcus epidermidis, UniProt Q5HLN6); assay: EMSA, inhibition of TcaR-GC33 ssDNA complex; also SPR; type: binding; details: 1 uM GC33 ssDNA, 2 uM TcaR dimer, 2 or 20 uM antibiotic, pH 8.0, room temperature; SPR: 64 nM TcaR, 640 nM antibiotic, pH 7.5, 25 °C
T1 construct: homodimer

TcaR [2] = molecular target: T1, TcaR; assay: EMSA, inhibition of TcaR-GC33 ssDNA complex; type: binding; details: 1 uM GC33 ssDNA, 2 uM TcaR dimer, 2 or 20 uM antibiotic, pH 8.0, room temperature

SMILES	EMSA, inhibition of TcaR-GC33 ssDNA complex; also SPR (TcaR [1])	EMSA, inhibition of TcaR-GC33 ssDNA complex (TcaR [2])
NC[C@H]1O[C@H](O[C@H]2[C@H](O)[C@@H](O[C@H]3O[C@H](CO)[C@@H](O)[C@H](N)[C@H]3O)[C@H](N)C[C@@H]2N)[C@H](O)[C@@H](O)[C@@H]1O [kanamycin]	kanamycin, chloramphenicol and gentamycin interfered with the ssDNA (GC33) binding activity of TcaR	–
O=C(N[C@H](CO)[C@H](O)c1ccc([N+](=O)[O-])cc1)C(Cl)Cl [chloramphenicol]	–	kanamycin, chloramphenicol and gentamycin interfered with the ssDNA (GC33) binding activity of TcaR
